The text below walks through data of US11014917B2, “5-fluoro-c-(aryl or heterocyclyl)-glycoside derivatives useful as dual SGLT1 / SGLT2 modulators” (Janssen Pharmaceutica NV, priority 2017, dated 2021).

One assay concerns the target T1, human SGLT2 (Homo sapiens, UniProt P31639).
T1 construct: expressed in transfected cells
T1 sequence (P31639 1-672): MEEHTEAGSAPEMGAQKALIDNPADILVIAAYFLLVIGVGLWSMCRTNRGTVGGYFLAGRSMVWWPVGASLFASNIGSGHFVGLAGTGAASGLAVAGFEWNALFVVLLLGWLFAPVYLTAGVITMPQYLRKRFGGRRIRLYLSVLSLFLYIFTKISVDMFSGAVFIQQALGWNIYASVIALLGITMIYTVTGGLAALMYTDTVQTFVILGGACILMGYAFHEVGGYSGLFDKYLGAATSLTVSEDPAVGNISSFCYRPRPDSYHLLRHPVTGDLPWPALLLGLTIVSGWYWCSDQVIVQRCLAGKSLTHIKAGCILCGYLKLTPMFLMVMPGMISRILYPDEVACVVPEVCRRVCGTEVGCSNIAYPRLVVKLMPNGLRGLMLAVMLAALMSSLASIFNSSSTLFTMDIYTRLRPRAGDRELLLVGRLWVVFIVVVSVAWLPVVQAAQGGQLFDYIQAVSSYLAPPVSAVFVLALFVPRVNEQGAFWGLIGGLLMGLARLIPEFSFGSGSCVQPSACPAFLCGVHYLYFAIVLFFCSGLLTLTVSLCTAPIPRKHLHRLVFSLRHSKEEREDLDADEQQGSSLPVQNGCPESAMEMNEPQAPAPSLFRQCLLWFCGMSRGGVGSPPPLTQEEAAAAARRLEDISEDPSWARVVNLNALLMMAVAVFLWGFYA
Kind of assay: SGLT2 assay: Na-dependent 14C-AMG uptake in CHO-K1 cells stably expressing human SGLT2. It counts as cell-based. The following applies: for IC50: average if tested more than once. In short, it runs like this:
(§1)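 Stable CHO-K1 lines were pretreated 24 h with 10 mM Na-butyrate, then compound (0.001–10 μM) for 10 min in Na+ buffer (137 mM NaCl, pH 7.4). Uptake of 14C-AMG (500 μM final, 0.07 μCi/well) over 2 h at 37° C measured by scintillation; %-inhibition or IC50.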

The target of the next assay is T2, human SGLT1 (Homo sapiens, UniProt P13866).
T2 construct: expressed in transfected cells
T2 sequence (P13866 1-664): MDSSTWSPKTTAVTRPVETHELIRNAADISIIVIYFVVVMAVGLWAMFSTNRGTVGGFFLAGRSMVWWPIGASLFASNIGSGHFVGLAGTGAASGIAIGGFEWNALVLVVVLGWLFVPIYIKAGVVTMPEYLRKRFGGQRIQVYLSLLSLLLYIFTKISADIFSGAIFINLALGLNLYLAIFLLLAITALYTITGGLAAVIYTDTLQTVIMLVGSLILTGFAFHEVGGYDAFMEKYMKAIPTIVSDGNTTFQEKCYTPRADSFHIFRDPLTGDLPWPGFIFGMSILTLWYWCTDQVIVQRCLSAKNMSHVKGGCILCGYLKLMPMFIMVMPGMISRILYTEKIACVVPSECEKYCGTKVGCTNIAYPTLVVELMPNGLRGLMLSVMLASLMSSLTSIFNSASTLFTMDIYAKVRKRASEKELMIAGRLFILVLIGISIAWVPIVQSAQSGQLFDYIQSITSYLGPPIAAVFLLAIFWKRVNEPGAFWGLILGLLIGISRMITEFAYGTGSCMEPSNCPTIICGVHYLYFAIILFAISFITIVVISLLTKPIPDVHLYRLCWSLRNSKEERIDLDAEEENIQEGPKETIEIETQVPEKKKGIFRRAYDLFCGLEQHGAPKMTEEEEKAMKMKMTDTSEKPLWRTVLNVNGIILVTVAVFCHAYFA
Nature of the assay: SGLT1 assay: Na-dependent 14C-AMG uptake in CHO-K1 cells stably expressing human SGLT1. The conditions noted are these: for IC50: average if tested more than once. It counts as cell-based. In short, it runs like this:
as §1

The IC50 is the concentration that inhibits the measured activity by half. As for `OC[C@H]1O[C@@H](c2cc(Cc3ccc4c(c3)CCCO4)c(Cl)c3c2OCC3)[C@H](O)[C@@H](O)[C@@H]1F` [Compound 125, (2S,3R,4R,5S,6R)-2-(4-chloro-5-(chroman-6-ylmethyl)-2,3-dihydrobenzofuran-7-yl)-5-fluoro-6-(hydroxymethyl)-tetrahydro-2H-pyran-3,4-diol], the IC50 against human SGLT2 came to 17 nM; on human SGLT1, 227 nM.

Take `Cc1c(Cc2cc3ccccc3s2)cc([C@@H]2O[C@H](CO)[C@@H](F)[C@H](O)[C@H]2O)c2c1CCO2` [Compound 68]: the IC50 stood at 21 nM at human SGLT2 and 55 nM against human SGLT1.

`COc1cc(Cl)c(Cc2cc3c(s2)CCN(C(=O)c2nccs2)C3)cc1[C@@H]1O[C@H](CO)[C@@H](F)[C@H](O)[C@H]1O` [Compound 106]: the SGLT2 %-inhibition at human SGLT2 (@ 0.3 μM) came to 82.1% @ 0.3 μM. The compound also came in with an SGLT1 %-inhibition at human SGLT1 (@ 0.3 μM) of 29.4% @ 0.3 μM.

Consider `[2H]C([2H])([2H])Oc1c([C@@H]2O[C@H](CO)[C@@H](F)[C@H](O)[C@H]2O)cc(Cc2ccc3c(c2)OCCO3)c2c1CCO2` [Compound 160, (2S,3R,4R,5S,6R)-2-[7-(2,3-dihydro-1,4-benzodioxin-6-ylmethyl)-4-(trideuteriomethoxy)-2,3-dihydrobenzofuran-5-yl]-5-fluoro-6-(hydroxymethyl)tetrahydropyran-3,4-diol], for which the figures for the IC50 at human SGLT2 and against human SGLT1 were 8 nM and 71 nM, respectively.

With `COc1cc(OC)c([C@@H]2O[C@H](CO)[C@@H](F)[C@H](O)[C@H]2O)cc1Cc1cc2c(s1)CCN(C(C)=O)C2` [Compound 82], the SGLT2 %-inhibition at human SGLT2 (@ 0.3 μM) was determined as 58.9% @ 0.3 μM. This compound also gave an SGLT1 %-inhibition at human SGLT1 (@ 0.3 μM) of 42.2% @ 0.3 μM.

As for `COc1cc(Cl)c(Cc2cc3c(s2)CCN(C(C)=O)C3)cc1[C@@H]1O[C@H](CO)[C@@H](F)[C@H](O)[C@H]1O` [Compound 77], the SGLT2 %-inhibition at human SGLT2 (@ 0.3 μM) was 69.9% @ 0.3 μM. The SGLT1 %-inhibition on human SGLT1 (@ 0.3 μM) was determined as 30.3% @ 0.3 μM.

With `COc1cc(Cl)c([C@@H]2O[C@H](CC#N)[C@@H](F)[C@H](O)[C@H]2O)cc1Cc1cc2ccccc2s1` [Compound 26], the IC50 on human SGLT2 was 982 nM; against human SGLT1 it was 847 nM.

`Cc1c(Cc2cc3ccccc3s2)cc([C@@H]2O[C@H](CO)[C@@H](F)[C@H](O)[C@H]2O)c(O)c1C` [Compound 13]: the IC50 against human SGLT2 turned out to be 7 nM; on human SGLT1 it was 15 nM.

For the compound `[2H]C1([2H])Oc2ccc(Cc3cc([C@@H]4O[C@H](CO)[C@@H](F)[C@H](O)[C@H]4O)c4c(c3CC)CCO4)cc2OC1([2H])[2H]` [Compound 179], the IC50 against human SGLT2 was found to be 15 nM; on human SGLT1, 60 nM.

`COC(=O)N1CCc2sc(Cc3cc([C@@H]4O[C@H](CO)[C@@H](F)[C@H](O)[C@H]4O)ccc3Cl)cc2C1` [Compound 80] showed an SGLT2 %-inhibition at human SGLT2 (@ 0.3 μM) of 60.4% @ 0.3 μM. Also, the SGLT1 %-inhibition at human SGLT1 (@ 0.3 μM) is listed as 37.4% @ 0.3 μM.

In the case of `Cc1cc(O)c([C@@H]2O[C@H](CF)[C@@H](F)[C@H](O)[C@H]2O)cc1Cc1cc2ccccc2s1` [Compound 20, (2S,3R,4R,5S,6R)-2-(5-(benzo[b]thiophen-2-ylmethyl)-2-hydroxy-4-methylphenyl)-5-fluoro-6-(fluoromethyl)-tetrahydro-2H-pyran-3,4-diol], the IC50 at human SGLT2 came to 402 nM; at human SGLT1, 114 nM.

As to `Cc1cc(O)c([C@@H]2O[C@H](CO)[C@@H](F)[C@H](O)[C@H]2O)cc1Cc1cc2c(s1)CCN(C#N)C2` [Compound 103, 2-(5-((2S,3R,4R,5S,6R)-5-fluoro-3,4-dihydroxy-6-(hydroxymethyl)-tetrahydro-2H-pyran-2-yl)-4-hydroxy-2-methylbenzyl)-6,7-dihydrothieno[3,2-c]pyridine-5(4H)-carbonitrile], the results for the half-maximal inhibitory concentration (IC50) at human SGLT2 and against human SGLT1 were 3 nM and 86 nM, respectively.

On to `COc1cc(C)c(Cc2cc3c(s2)CCN(C(=O)N2CCCC2)C3)cc1[C@@H]1O[C@H](CO)[C@@H](F)[C@H](O)[C@H]1O` [Compound 81], for which the IC50 against human SGLT2 was found to be 11 nM; against human SGLT1, 223 nM.

Regarding `OC[C@H]1O[C@@H](c2cc3c(c(Cc4ccc5c(c4)SCCO5)c2)OCC3)[C@H](O)[C@@H](O)[C@@H]1F` [Compound 124], the values for the IC50 against human SGLT2 and at human SGLT1 were 147 nM and 698 nM, respectively.

For orientation: inhibition means the drop in the measured response relative to a control, in per cent. High values mean strong suppression, low ones little suppression. Turning to `OC[C@H]1O[C@@H](c2cc(Cc3ccc4c(c3)OCCO4)c(O)c3c2OCC3)[C@H](O)[C@@H](O)[C@@H]1F` [Compound 98, (2S,3R,4R,5S,6R)-2-[5-(2,3-dihydro-1,4-benzodioxin-6-ylmethyl)-4-hydroxy-2,3-dihydrobenzofuran-7-yl]-5-fluoro-6-(hydroxymethyl)tetrahydropyran-3,4-diol], the results for the inhibition at 0.3 µM against human SGLT2 (@ 0.3 μM) and against human SGLT1 (@ 0.3 μM) were 26% and 30.9%, respectively.

`COc1cc(C)c(Cc2cc3c(s2)CCN(C#N)C3)cc1[C@@H]1O[C@H](CO)[C@@H](F)[C@H](O)[C@H]1O` [Compound 110, 2-(5-((2S,3R,4R,5S,6R)-5-fluoro-3,4-dihydroxy-6-(hydroxymethyl)-tetrahydro-2H-pyran-2-yl)-4-methoxy-2-methylbenzyl)-6,7-dihydrothieno[3,2-c]pyridine-5(4H)-carbonitrile]: the IC50 at human SGLT2 stood at 5 nM; against human SGLT1 it was 1420 nM.
